ChEMBL document CHEMBL5518204, “Discovery and Proof of Concept of Potent Dual Polθ/PARP Inhibitors for Efficient Treatment of Homologous Recombination-Deficient Tumors” (J Med Chem, 2024)
The source made the active and inactive calls. The calls are words filed in the database; no cut-off is given here.

Experiments:
DNA polymerase theta [1] = target: T1, DNA polymerase theta (Homo sapiens, UniProt O75417); assay: Inhibition of DNA polymerase theta (unknown origin) ATPase activity incubated for 60 mins in presence of ATP by ADP-glo kinase assay
[2] = target: T2, Poly [ADP-ribose] polymerase 1 (Homo sapiens, UniProt P09874); assay: Inhibition of human PARP1 incubated for 90 mins by colorimetric assay
HCC1937 = assay: Antiproliferative activity against BRCA1-deficient human HCC1937 cells assessed as inhibition of cell proliferation incubated for 5 days by MTT assay; assay type: functional, cell-based; details: HCC1937, 120 h
MDA-MB-436 [3] = assay: Antiproliferative activity against BRCA1-deficient human MDA-MB-436 cells assessed as inhibition of cell proliferation incubated for 5 days by MTT assay; assay type: functional, cell-based; details: MDA-MB-436, 120 h
HCT-116 = assay: Antiproliferative activity against BRCA2-deficient human HCT-116 cells assessed as inhibition of cell proliferation incubated for 5 days by MTT assay; assay type: functional, cell-based; details: HCT-116, 120 h
SK-OV-3 = assay: Antiproliferative activity against BRCA-proficient human SK-OV-3 cells assessed as inhibition of cell proliferation incubated for 5 days by MTT assay; assay type: functional, cell-based; details: SK-OV-3, 120 h
MCF-10A = assay: (§1) Antiproliferative activity against human MCF-10A cells assessed as inhibition of cell proliferation incubated for 5 days by MTT assay; assay type: toxicity, cell-based; details: mcf-10a
[4] = target: T2, Poly [ADP-ribose] polymerase 1; details: dose 10.0 nM, time 90.0 min
DNA polymerase theta [5] = target: T1, DNA polymerase theta; assay: Inhibition of DNA polymerase theta (unknown origin) (1 to 899 residues) ATPase activity by NADH oxidation-coupled enzymatic assay
DNA polymerase theta [6] = target: T1, DNA polymerase theta; assay: Inhibition of human DNA polymerase theta (67 to 970 residues) ATPase activity expressed in Sf9 insect cells incubated for 40 mins by ADP-glo assay
SW48 = assay: Antiproliferative activity against BRCA2-deficient human SW48 cells assessed as inhibition of cell proliferation incubated for 5 days by MTT assay; assay type: functional, cell-based; details: SW48, 120 h
[7] = as §1; assay type: toxicity, cell-based; details: human, MCF-10A cells
MDA-MB-436 [8] = assay: Inhibition of colony formation in human MDA-MB-436 cells at 10 uM incubated for 9 days by crystal violet staining based analysis; assay type: functional, cell-based; details: time 9.0 day
MDA-MB-436 [9] = assay: Inhibition of colony formation in human MDA-MB-436 cells at 2 to 10 uM incubated for 9 days in presence of olaparib by crystal violet staining based analysis; assay type: functional, cell-based; details: dose 2-10 µM, time 9.0 day
MDA-MB-231 [10] = assay: Induction of apoptosis in human MDA-MB-231 cells at 10 uM incubated for 3 days by Annexin V-APC/7-AAD based flow cytometry analysis; assay type: functional; details: time 3 day
MDA-MB-231 [11] = assay: Induction of apoptosis in human MDA-MB-231 cells at 2 to 10 uM incubated for 3 days in presence of olaparib by Annexin V-APC/7-AAD based flow cytometry analysis; assay type: functional; details: dose 2-10 µM, time 3 day
MDA-MB-231 [12] = assay: Induction of cell cycle arrest in human MDA-MB-231 cells assessed as accumulation of cells at G2/M phase at 10 uM incubated for 3 days by PI staining based flow cytometric analysis; assay type: functional; details: time 3.0 day
MDA-MB-231 [13] = assay: Induction of cell cycle arrest in human MDA-MB-231 cells assessed as accumulation of cells at G2/M phase at 10 uM incubated for 3 days in presence of olaparib by PI staining based flow cytometric analysis; assay type: functional; details: time 3.0 day
MDA-MB-231 [14] = assay: Induction of DNA damage in human MDA-MB-231 cells assessed as increase in gammaH2AX foci at 10 uM incubated for 3 days by DAPI staining based confocal laser scanning microscopic analysis; assay type: functional, cell-based; details: time 3.0 day
MDA-MB-231 [15] = assay: Induction of DNA damage in human MDA-MB-231 cells assessed as increase in gammaH2AX foci at 2 to 10 uM incubated for 3 days in presence of olaparib by DAPI staining based confocal laser scanning microscopic analysis; assay type: functional, cell-based; details: dose 2-10 µM, time 3.0 day
MDA-MB-231 [16] = assay: Induction of DNA damage in human MDA-MB-231 cells assessed as increase in tail intensity at 10 uM incubated for 3 days by florescence microscopic analysis; assay type: functional, cell-based; details: time 3.0 day
MDA-MB-231 [17] = assay: Induction of DNA damage in human MDA-MB-231 cells assessed as increase in tail intensity at 2 to 10 uM incubated for 3 days in presence of olaparib by florescence microscopic analysis; assay type: functional, cell-based; details: dose 2-10 µM, time 3.0 day
MDA-MB-231 [18] = assay: Antitumor activity against human MDA-MB-231 cells xenografted in BALB/c mouse assessed as tumor growth inhibition at 40 mg/kg, ip administered for 21 days; assay type: functional; details: MDA-MB-231, 504 h, time 21 day, read-out: TGI
MDA-MB-231 [19] = assay: Antitumor activity against human MDA-MB-231 cells xenografted in BALB/c mouse assessed as tumor growth inhibition at 40 mg/kg, ip administered for 21 days in presence of olaparib; assay type: functional; details: MDA-MB-231, 504 h, time 21 day, read-out: TGI
MDA-MB-231 [20] = assay: Antiproliferative activity against 53BP1-knockdown human MDA-MB-231 cells incubated for 24 hrs by MTT assay; assay type: functional, cell-based
MDA-MB-436 [21] = assay: Inhibition of colony formation in human MDA-MB-436 cells at 2 uM incubated for 9 days by crystal violet staining based analysis; assay type: functional, cell-based; details: time 9.0 day
MDA-MB-436 [22] = assay: Inhibition of colony formation in human MDA-MB-436 cells at 2 to 10 uM incubated for 9 days in presence of novobiocin by crystal violet staining based analysis; assay type: functional, cell-based; details: dose 2-10 µM, time 9.0 day
MDA-MB-231 [23] = assay: Induction of apoptosis in human MDA-MB-231 cells at 2 uM incubated for 3 days by Annexin V-APC/7-AAD based flow cytometry analysis; assay type: functional; details: time 3 day
MDA-MB-231 [24] = assay: Induction of apoptosis in human MDA-MB-231 cells at 2 to 10 uM incubated for 3 days in presence of novobiocin by Annexin V-APC/7-AAD based flow cytometry analysis; assay type: functional; details: dose 2-10 µM, time 3 day
MDA-MB-231 [25] = assay: Induction of cell cycle arrest in human MDA-MB-231 cells assessed as accumulation of cells at G2/M phase at 2 uM incubated for 3 days by PI staining based flow cytometric analysis; assay type: functional; details: time 3.0 day
MDA-MB-231 [26] = assay: Induction of cell cycle arrest in human MDA-MB-231 cells assessed as accumulation of cells at G2/M phase at 10 uM incubated for 3 days in presence of novobiocin by PI staining based flow cytometric analysis; assay type: functional; details: time 3.0 day
MDA-MB-231 [27] = assay: Induction of DNA damage in human MDA-MB-231 cells assessed as increase in gammaH2AX foci at 2 uM incubated for 3 days by DAPI staining based confocal laser scanning microscopic analysis; assay type: functional, cell-based; details: time 3.0 day
MDA-MB-231 [28] = assay: Induction of DNA damage in human MDA-MB-231 cells assessed as increase in gammaH2AX foci at 2 to 10 uM incubated for 3 days in presence of novobiocin by DAPI staining based confocal laser scanning microscopic analysis; assay type: functional, cell-based; details: dose 2-10 µM, time 3.0 day
MDA-MB-231 [29] = assay: Induction of DNA damage in human MDA-MB-231 cells assessed as increase in tail intensity at 2 uM incubated for 3 days by florescence microscopic analysis; assay type: functional, cell-based; details: time 3.0 day
MDA-MB-231 [30] = assay: Induction of DNA damage in human MDA-MB-231 cells assessed as increase in tail intensity at 2 to 10 uM incubated for 3 days in presence of novobiocin by florescence microscopic analysis; assay type: functional, cell-based; details: dose 2-10 µM, time 3.0 day

T2 sequence (P09874 whole entry): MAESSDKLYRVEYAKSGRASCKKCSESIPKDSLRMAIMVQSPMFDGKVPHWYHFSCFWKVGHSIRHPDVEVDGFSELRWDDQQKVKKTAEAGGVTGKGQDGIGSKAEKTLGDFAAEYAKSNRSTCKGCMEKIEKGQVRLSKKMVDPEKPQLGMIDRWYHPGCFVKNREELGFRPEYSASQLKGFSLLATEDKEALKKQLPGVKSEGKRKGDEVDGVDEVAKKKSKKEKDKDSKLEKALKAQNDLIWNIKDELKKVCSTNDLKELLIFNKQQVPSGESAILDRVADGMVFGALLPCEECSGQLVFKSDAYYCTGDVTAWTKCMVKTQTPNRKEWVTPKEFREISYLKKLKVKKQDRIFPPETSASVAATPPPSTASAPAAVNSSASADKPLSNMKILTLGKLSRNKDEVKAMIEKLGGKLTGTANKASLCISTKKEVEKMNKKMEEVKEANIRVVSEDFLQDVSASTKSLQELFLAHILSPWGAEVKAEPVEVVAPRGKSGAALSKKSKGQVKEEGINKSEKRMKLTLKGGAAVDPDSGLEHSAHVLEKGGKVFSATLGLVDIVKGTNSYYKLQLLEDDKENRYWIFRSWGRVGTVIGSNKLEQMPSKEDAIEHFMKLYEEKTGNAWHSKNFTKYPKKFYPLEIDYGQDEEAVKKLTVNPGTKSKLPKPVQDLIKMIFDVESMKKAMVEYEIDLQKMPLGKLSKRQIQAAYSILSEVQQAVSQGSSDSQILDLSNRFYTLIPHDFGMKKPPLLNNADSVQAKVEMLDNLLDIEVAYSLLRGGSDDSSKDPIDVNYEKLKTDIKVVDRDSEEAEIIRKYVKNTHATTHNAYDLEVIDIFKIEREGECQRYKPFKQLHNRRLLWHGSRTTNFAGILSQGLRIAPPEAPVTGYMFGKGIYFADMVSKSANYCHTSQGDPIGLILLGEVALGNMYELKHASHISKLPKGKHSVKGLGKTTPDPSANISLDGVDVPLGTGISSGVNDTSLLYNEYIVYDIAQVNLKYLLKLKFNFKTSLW
T1 sequence (O75417 whole entry): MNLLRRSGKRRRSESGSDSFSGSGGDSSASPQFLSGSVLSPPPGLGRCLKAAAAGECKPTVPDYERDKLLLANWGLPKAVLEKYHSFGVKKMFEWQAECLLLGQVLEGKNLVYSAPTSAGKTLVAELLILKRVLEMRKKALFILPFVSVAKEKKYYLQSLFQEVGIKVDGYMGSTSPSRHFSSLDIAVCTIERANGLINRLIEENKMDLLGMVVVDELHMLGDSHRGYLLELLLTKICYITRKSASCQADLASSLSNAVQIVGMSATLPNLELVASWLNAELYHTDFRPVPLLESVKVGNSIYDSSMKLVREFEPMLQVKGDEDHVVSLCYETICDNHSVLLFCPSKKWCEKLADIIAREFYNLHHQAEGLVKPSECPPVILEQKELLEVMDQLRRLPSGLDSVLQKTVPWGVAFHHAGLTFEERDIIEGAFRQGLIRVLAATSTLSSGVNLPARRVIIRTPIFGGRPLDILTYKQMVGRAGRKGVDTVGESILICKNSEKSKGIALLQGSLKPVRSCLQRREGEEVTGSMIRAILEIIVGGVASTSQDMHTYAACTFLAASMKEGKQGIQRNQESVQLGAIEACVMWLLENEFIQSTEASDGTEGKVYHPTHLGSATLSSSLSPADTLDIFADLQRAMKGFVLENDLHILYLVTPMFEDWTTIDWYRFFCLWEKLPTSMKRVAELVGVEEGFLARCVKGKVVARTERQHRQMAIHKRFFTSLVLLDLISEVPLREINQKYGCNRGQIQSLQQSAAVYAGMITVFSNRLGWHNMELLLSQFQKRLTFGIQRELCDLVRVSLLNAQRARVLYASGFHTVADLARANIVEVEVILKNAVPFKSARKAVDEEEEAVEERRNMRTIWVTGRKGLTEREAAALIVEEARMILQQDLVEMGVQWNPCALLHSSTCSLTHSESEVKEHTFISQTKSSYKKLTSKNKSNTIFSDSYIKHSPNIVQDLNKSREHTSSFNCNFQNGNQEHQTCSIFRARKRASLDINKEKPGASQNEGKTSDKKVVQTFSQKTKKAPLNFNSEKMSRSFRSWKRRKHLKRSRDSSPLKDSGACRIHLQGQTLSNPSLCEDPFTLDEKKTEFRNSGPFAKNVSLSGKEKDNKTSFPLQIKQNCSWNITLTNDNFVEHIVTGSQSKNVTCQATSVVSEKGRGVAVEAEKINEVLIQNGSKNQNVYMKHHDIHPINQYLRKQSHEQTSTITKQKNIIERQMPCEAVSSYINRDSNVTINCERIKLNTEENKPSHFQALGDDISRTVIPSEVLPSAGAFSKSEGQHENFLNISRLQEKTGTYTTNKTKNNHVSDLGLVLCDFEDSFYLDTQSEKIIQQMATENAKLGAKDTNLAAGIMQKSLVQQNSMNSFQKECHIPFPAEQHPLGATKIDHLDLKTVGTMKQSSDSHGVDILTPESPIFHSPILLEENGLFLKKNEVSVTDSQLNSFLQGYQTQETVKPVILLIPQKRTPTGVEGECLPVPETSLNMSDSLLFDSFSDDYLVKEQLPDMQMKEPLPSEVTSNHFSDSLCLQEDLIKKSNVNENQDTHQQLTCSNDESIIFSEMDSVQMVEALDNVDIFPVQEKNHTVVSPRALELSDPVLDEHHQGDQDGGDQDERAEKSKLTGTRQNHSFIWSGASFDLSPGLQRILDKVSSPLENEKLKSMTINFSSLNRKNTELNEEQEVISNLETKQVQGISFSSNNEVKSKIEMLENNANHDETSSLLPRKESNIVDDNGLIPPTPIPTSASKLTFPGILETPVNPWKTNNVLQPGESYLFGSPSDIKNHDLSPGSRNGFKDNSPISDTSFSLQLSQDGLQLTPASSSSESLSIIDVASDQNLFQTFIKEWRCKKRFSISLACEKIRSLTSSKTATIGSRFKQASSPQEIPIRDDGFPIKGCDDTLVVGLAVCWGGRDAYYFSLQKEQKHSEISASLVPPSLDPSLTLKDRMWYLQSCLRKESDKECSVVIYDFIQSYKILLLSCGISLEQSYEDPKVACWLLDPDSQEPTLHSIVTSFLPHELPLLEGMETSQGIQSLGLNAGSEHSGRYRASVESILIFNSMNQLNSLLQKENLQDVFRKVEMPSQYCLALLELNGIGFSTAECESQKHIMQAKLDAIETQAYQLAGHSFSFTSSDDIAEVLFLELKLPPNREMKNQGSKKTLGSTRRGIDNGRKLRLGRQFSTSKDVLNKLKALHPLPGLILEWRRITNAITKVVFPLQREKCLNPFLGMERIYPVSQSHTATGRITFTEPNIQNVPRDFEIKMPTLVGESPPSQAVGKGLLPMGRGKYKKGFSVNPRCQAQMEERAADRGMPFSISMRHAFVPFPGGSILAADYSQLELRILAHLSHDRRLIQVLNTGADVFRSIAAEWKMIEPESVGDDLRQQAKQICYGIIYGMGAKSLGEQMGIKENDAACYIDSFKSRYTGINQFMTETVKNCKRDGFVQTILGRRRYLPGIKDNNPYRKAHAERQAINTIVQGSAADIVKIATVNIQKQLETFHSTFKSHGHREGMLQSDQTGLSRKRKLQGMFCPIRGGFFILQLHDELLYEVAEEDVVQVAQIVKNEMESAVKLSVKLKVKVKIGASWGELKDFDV

SMILES	IC50 (DNA polymerase theta [1])	IC50 (HCC1937)	IC50 (MDA-MB-436 [3])	IC50 (HCT-116)	IC50 (SK-OV-3)	inhibition [4]	also measured
COc1ccc(F)cc1-c1cc(C)ncc1C(=O)Nc1nnc(OC2CC3(CCN(C(=O)c4cc(Cc5n[nH]c(=O)c6ccccc56)ccc4F)CC3)C2)s1	0.0719 µM	57.8 µM	9.1 µM	8.4 µM	> 80 µM	70.1%	IC50 [2]: 0.0047 µM; IC50 (MCF-10A): Non-Toxic
COc1ccccc1-c1cnccc1C(=O)Nc1nnc(OC2CC3(CCN(C(=O)c4cc(Cc5n[nH]c(=O)c6ccccc56)ccc4F)CC3)C2)s1	0.166 µM					47%	
COc1ccccc1-c1cnccc1C(=O)Nc1nnc(N2CCN(C(=O)c3cc(Cc4n[nH]c(=O)c5ccccc45)ccc3F)CC2)s1	> 1 µM					91.4%	
COc1ccc(Cl)cc1-c1cc(C)ncc1C(=O)Nc1nnc(OC2CC3(CCN(C(=O)c4cc(Cc5n[nH]c(=O)c6ccccc56)ccc4F)CC3)C2)s1	0.0598 µM	89.4 µM	10.5 µM	6.2 µM	> 80 µM	66.9%	IC50 (MCF-10A): Non-Toxic
COc1cnc(C(F)F)cc1-c1cc(N2CCC(C)CC2=O)ncc1C(=O)Nc1nnc(C#CC2CC2)s1 (stereo not given)							IC50 (DNA polymerase theta [5]): < 0.2 µM
O=C(Nc1nnc(OCc2ccc(Cl)cc2)s1)c1cc(Cc2n[nH]c(=O)c3ccccc23)ccc1F	> 1 µM						
COc1cccc(F)c1-c1cc(C)ncc1C(=O)Nc1nnc(OC2CC3(CCN(C(=O)c4cc(Cc5n[nH]c(=O)c6ccccc56)ccc4F)CC3)C2)s1	0.0793 µM	65.6 µM	5.5 µM	7.2 µM	> 80 µM	72.8%	IC50 (MCF-10A): Non-Toxic
COc1ccccc1-c1cnccc1C(=O)N1CCN(C(=O)c2cc(Cc3n[nH]c(=O)c4ccccc34)ccc2F)CC1	> 1 µM					87.9%	
COc1ccccc1-c1cnccc1C(=O)Nc1nnc(OCc2ccc(Cl)cc2)s1	0.0024 µM	61.9 µM	59.4 µM	46.3 µM	92.1 µM		IC50 (DNA polymerase theta [6]): 0.0024 µM; IC50 (DNA polymerase theta [5]): < 0.2 µM; IC50 (SW48; read-out: IC50): 13.4 µM; IC50 at 5 days [7]: > 80 µM
COc1ccccc1-c1cnccc1C(=O)Nc1nnc(N2CC3(CCN(C(=O)c4cc(Cc5n[nH]c(=O)c6ccccc56)ccc4F)CC3)C2)s1	> 1 µM					82.8%	
COc1ccccc1-c1cnccc1C(=O)Nc1nnc(OCc2cc(Cc3n[nH]c(=O)c4ccccc34)ccc2F)s1						30.3%	
CO[C@@H]1[C@@H](OC(N)=O)[C@@H](O)[C@H](Oc2ccc3c(O)c(NC(=O)c4ccc(O)c(CC=C(C)C)c4)c(=O)oc3c2C)OC1(C)C [NOVOBIOCIN]		> 80 µM	24.3 µM	> 80 µM	> 80 µM		IC50 (SW48; read-out: IC50): > 80 µM; IC50 at 5 days [7]: > 80 µM; inhibition (MDA-MB-436 [8]): Active; inhibition (MDA-MB-436 [9]): Active; Activity (MDA-MB-231 [10]): 6.4%; Activity (MDA-MB-231 [11]): 14.2%; Activity (MDA-MB-231 [12]): Active; Activity (MDA-MB-231 [13]): Active; Activity (MDA-MB-231 [14]): Active; Activity (MDA-MB-231 [15]): Active; Activity (MDA-MB-231 [16]): Active; Activity (MDA-MB-231 [17]): Active; inhibition in vivo at 40 mg/kg (MDA-MB-231 [18]): 45%; inhibition in vivo at 40 mg/kg (MDA-MB-231 [19]): 62.5%; Activity (MDA-MB-231 [20]): Active
COc1ccccc1-c1cnccc1C(=O)Nc1nnc(OCC2CCN(C(=O)c3cc(Cc4n[nH]c(=O)c5ccccc45)ccc3F)CC2)s1	0.117 µM	18.1 µM	5.6 µM	17.6 µM	32.6 µM	91.6%	IC50 (MCF-10A): Non-Toxic
COc1ccccc1-c1cnccc1C(=O)Nc1ncc(N2CCN(C(=O)c3cc(Cc4n[nH]c(=O)c5ccccc45)ccc3F)CC2)s1	> 1 µM					93.1%	
O=C(c1cc(Cc2n[nH]c(=O)c3ccccc23)ccc1F)N1CCN(C(=O)C2CC2)CC1 [OLAPARIB]		38.2 µM	13.3 µM		27.1 µM		IC50 (SW48): 4.6 µM; IC50 at 5 days [7]: > 80 µM; inhibition (MDA-MB-436 [21]): Active; inhibition (MDA-MB-436 [22]): Active; Activity (MDA-MB-231 [23]): 8.9%; Activity (MDA-MB-231 [24]): 14.2%; Activity (MDA-MB-231 [25]): Active; Activity (MDA-MB-231 [26]): Active; Activity (MDA-MB-231 [27]): Active; Activity (MDA-MB-231 [28]): Active; Activity (MDA-MB-231 [29]): Active; Activity (MDA-MB-231 [30]): Active; Activity (MDA-MB-231 [20]): inactive
COc1ccccc1-c1cnccc1C(=O)Nc1nnc(OCC2CN(C(=O)c3cc(Cc4n[nH]c(=O)c5ccccc45)ccc3F)C2)s1	> 1 µM					36.9%	
COc1ccccc1-c1cnccc1C(=O)Nc1nnc(OC2CC3(C2)CN(C(=O)c2cc(Cc4n[nH]c(=O)c5ccccc45)ccc2F)C3)s1	0.268 µM					56.4%	
